Drawing on ChEMBL document CHEMBL1152147, “Design at the atomic level: design of biaryloxazolidinones as potent orally active antibiotics” (Bioorg Med Chem Lett, 2008), this text covers IC50 and MIC for eleven molecules.

Converted amounts (≈) assume the structure as drawn. Some results are limits rather than exact numbers.

By IC50 is commonly meant the concentration that gives 50% inhibition. A low value points to greater potency in that assay.

The test system of test [1] is Escherichia coli. Nature of the test: Inhibition of Escherichia coli translation. It is filed as functional, organism-based.
For test [2], the system named is Haemophilus influenzae. Nature of the test: Antimicrobial activity against Haemophilus influenzae parent strain RD1 by NCCLS method. In kind it is functional.
Test [3] has as its system Enterococcus faecalis. Nature of the test: Antimicrobial activity against Linezolid-resistant Enterococcus faecalis P5 by NCCLS method. It is filed as functional.
For test [4], the system named is Streptococcus pyogenes. Kind of test: Antimicrobial activity against erm (B) expressing Streptococcus pyogenes Msr 610 by NCCLS method. It is filed as functional.
Test [5] relates to Streptococcus pneumoniae. Kind of test: Antimicrobial activity against mef (A) expressing Streptococcus pneumoniae 02J1175 by NCCLS method. In kind it is functional.
For test [6], the system named is Haemophilus influenzae. Nature of the test: Antimicrobial activity against Haemophilus influenzae 895 (AcrB-KO) by NCCLS method. It is filed as functional.
The test system of test [7] is Enterococcus faecalis. Nature of the test: Antimicrobial activity against vanB+ expressing Enterococcus faecalis 1069 by NCCLS method. It is filed as functional.
Test [8] has as its system Haemophilus influenzae. Nature of the test: Antimicrobial activity against Haemophilus influenzae A1950 by NCCLS method. In kind it is functional.
The subject of test [9] is Streptococcus pneumoniae. Kind of test: Antimicrobial activity against erm (B) expressing Streptococcus pneumoniae 02J1258 + L4 by NCCLS method. It is filed as functional.
Test [10] concerns Streptococcus pyogenes. Nature of the test: Antimicrobial activity against erm (B) Streptococcus pyogenes msr610 by NCCLS method. In kind it is functional.
Test [11] concerns Haemophilus influenzae. Nature of the test: Antimicrobial activity against Haemophilus influenzae 1100 by NCCLS method. In kind it is functional.
For test [12], the system named is Enterococcus faecium. Nature of the test: Antimicrobial activity against vanA+ expressing Enterococcus faecium A6349 by NCCLS method.
Test [13] concerns Enterococcus faecalis. Kind of test: Antimicrobial activity against Linezolid-resistant Enterococcus faecalis ATCC 29212-P5 by NCCLS method. In kind it is functional.
The subject of test [14] is Haemophilus influenzae. Kind of test: Antimicrobial activity against Haemophilus influenzae by NCCLS method. In kind it is functional.
The subject of test [15] is Staphylococcus aureus. Nature of the test: Antimicrobial activity against methicillin-resistant Staphylococcus aureus 67-0 by NCCLS method. In kind it is functional.

Regarding `CC(=O)NC[C@H]1CN(c2ccc(-c3ccc(CNCc4ccncc4)cc3)c(F)c2)C(=O)O1`, the IC50 in [1] was 50 nM. In addition, the MIC in test [2] was determined as 8 µg/mL (≈ 17.8 µM); in test [3], 2 µg/mL (≈ 4.46 µM); in test [4] it was 0.5 µg/mL (≈ 1.11 µM); in test [5] it was 0.25 µg/mL (≈ 0.557 µM); in test [6], 0.5 µg/mL (≈ 1.11 µM).
Molecule `CC(=O)NC[C@H]1CN(c2ccc(-c3ccc(CNCc4ccco4)cc3)c(F)c2)C(=O)O1` displayed an IC50 in [1] of 40 nM. For the same molecule, the MIC was 4 µg/mL (≈ 9.14 µM) in test [2]; 4 µg/mL (≈ 9.14 µM) in test [3]; 0.25 µg/mL (≈ 0.571 µM) in [4]; 0.25 µg/mL (≈ 0.571 µM) in test [5]; 0.5 µg/mL (≈ 1.14 µM) in test [6].
In the case of `CC(=O)NC[C@H]1CN(c2ccc(-c3ccc(CNCc4cnoc4)cc3)c(F)c2)C(=O)O1`, the MIC turned out to be 0.5 µg/mL (≈ 1.14 µM) in test [7]; 8 µg/mL (≈ 18.2 µM) in test [8]; 0.125 µg/mL in [9]; 0.125 µg/mL (≈ 0.285 µM) in test [10]; 2 µg/mL (≈ 4.56 µM) in [2]; 1 µg/mL (≈ 2.28 µM) in test [11]. In addition, the MIC in test [12] came to 1 µg/mL (≈ 2.28 µM); in test [13], 2 µg/mL (≈ 4.56 µM); in [5], 0.125 µg/mL (≈ 0.285 µM); in test [14], 4 µg/mL (≈ 9.12 µM).
`CC(=O)NC[C@H]1CN(c2ccc(-c3ccc(CNCc4ccnc5ccccc45)cc3)c(F)c2)C(=O)O1` yielded a concentration for half-maximal inhibition (IC50) in test [1] of under 20 nM. The MIC was found to be 8 µg/mL (≈ 16 µM) in test [2]; 2 µg/mL (≈ 4.01 µM) in test [3]; 0.5 µg/mL (≈ 1 µM) in test [4]; 0.5 µg/mL (≈ 1 µM) in test [5]; 1 µg/mL (≈ 2.01 µM) in [6].
For `CC(=O)NC[C@H]1CN(c2ccc(-c3ccc(CNCc4cnn[nH]4)cc3)c(F)c2)C(=O)O1` [RADEZOLID], the MIC in test [7] was at most 0.25 µg/mL; in [8], 1 µg/mL (≈ 2.28 µM); in test [9], 0.25 µg/mL; in test [10] it was 0.125 µg/mL (≈ 0.285 µM); in [2], 0.5 µg/mL (≈ 1.14 µM); in [11] it was 0.25 µg/mL (≈ 0.57 µM). For the same molecule, the MIC worked out at 1 µg/mL (≈ 2.28 µM) in test [15]; 0.5 µg/mL (≈ 1.14 µM) in test [12]; 1 µg/mL (≈ 2.28 µM) in test [13]; 0.25 µg/mL (≈ 0.57 µM) in [5]; 1 µg/mL (≈ 2.28 µM) in test [14].
As to `CC(=O)NC[C@H]1CN(c2ccc(-c3ccc(CNCCCF)cc3)c(F)c2)C(=O)O1`, the MIC came out at 0.5 µg/mL (≈ 1.2 µM) in test [7]; 4 µg/mL (≈ 9.58 µM) in test [8]; 0.125 µg/mL in test [9]; 0.125 µg/mL (≈ 0.299 µM) in test [10]; 2 µg/mL (≈ 4.79 µM) in test [2]; 2 µg/mL (≈ 4.79 µM) in test [11]. Further, the MIC is 1 µg/mL (≈ 2.4 µM) in test [15]; 1 µg/mL (≈ 2.4 µM) in test [12]; 2 µg/mL (≈ 4.79 µM) in test [13]; 0.125 µg/mL (≈ 0.299 µM) in test [5]; 4 µg/mL (≈ 9.58 µM) in test [14].
In the case of `CC(=O)NC[C@H]1CN(c2ccc(-c3ccc(Cn4ccnn4)cc3)c(F)c2)C(=O)O1`, the MIC in [7] was found to be 0.5 µg/mL (≈ 1.22 µM); in [8] it was 8 µg/mL (≈ 19.5 µM); in test [9] it was 0.25 µg/mL; in test [10], 0.5 µg/mL (≈ 1.22 µM); in [2], 4 µg/mL (≈ 9.77 µM); in test [11] it was 2 µg/mL (≈ 4.88 µM). In addition, the MIC was found to be 0.5 µg/mL (≈ 1.22 µM) in test [15]; 1 µg/mL (≈ 2.44 µM) in test [12]; 1 µg/mL (≈ 2.44 µM) in [13]; 0.5 µg/mL (≈ 1.22 µM) in test [5]; 4 µg/mL (≈ 9.77 µM) in test [14].
Consider `CC(=O)NC[C@H]1CN(c2ccc(-c3ccc(Cn4ncnn4)cc3)c(F)c2)C(=O)O1`, for which the MIC in [7] was at most 0.25 µg/mL; in [8], 8 µg/mL (≈ 19.5 µM); in [9], 0.25 µg/mL; in [10] it was 0.125 µg/mL (≈ 0.305 µM); in [2] it was 4 µg/mL (≈ 9.75 µM); in test [11], 4 µg/mL (≈ 9.75 µM). Further, the MIC in test [15] was 0.5 µg/mL (≈ 1.22 µM); in [12] it was 0.5 µg/mL (≈ 1.22 µM); in [13], 1 µg/mL (≈ 2.44 µM); in test [5], 0.125 µg/mL (≈ 0.305 µM); in test [14] it was 8 µg/mL (≈ 19.5 µM).
Turning to `CC(=O)NC[C@H]1CN(c2ccc(-c3ccc(Cn4cnnn4)cc3)c(F)c2)C(=O)O1`, the MIC amounted to 0.5 µg/mL (≈ 1.22 µM) in [7]; 8 µg/mL (≈ 19.5 µM) in [8]; 0.5 µg/mL in test [9]; 0.5 µg/mL (≈ 1.22 µM) in test [10]; 2 µg/mL (≈ 4.87 µM) in test [2]; 2 µg/mL (≈ 4.87 µM) in test [11]. Besides, the MIC turned out to be 1 µg/mL (≈ 2.44 µM) in test [15]; 1 µg/mL (≈ 2.44 µM) in test [12]; 1 µg/mL (≈ 2.44 µM) in test [13]; 0.25 µg/mL (≈ 0.609 µM) in test [5]; 4 µg/mL (≈ 9.75 µM) in test [14].
For `CC(=O)NC[C@H]1CN(c2ccc(-c3ccc(CNCC#N)cc3)c(F)c2)C(=O)O1`, the MIC was at most 0.25 µg/mL in [7]; 8 µg/mL (≈ 20.2 µM) in test [8]; 0.25 µg/mL in [9]; 0.25 µg/mL (≈ 0.631 µM) in test [10]; 4 µg/mL (≈ 10.1 µM) in test [2]; 4 µg/mL (≈ 10.1 µM) in [11]. The MIC in [15] amounted to 0.5 µg/mL (≈ 1.26 µM); in test [12], 1 µg/mL (≈ 2.52 µM); in test [13] it was 1 µg/mL (≈ 2.52 µM); in test [5], 0.25 µg/mL (≈ 0.631 µM); in test [14] it was 8 µg/mL (≈ 20.2 µM).
With `CC(=O)NC[C@H]1CN(c2ccc(N3CCOCC3)c(F)c2)C(=O)O1` [LINEZOLID], the MIC in test [8] was 32 µg/mL (≈ 94.9 µM); in test [10], 1 µg/mL (≈ 2.96 µM); in test [2] it was 16 µg/mL (≈ 47.4 µM); in [11] it was 16 µg/mL (≈ 47.4 µM); in [3] it was 32 µg/mL (≈ 94.9 µM); in test [4], 1 µg/mL (≈ 2.96 µM). In addition, the MIC in test [13] came to 32 µg/mL (≈ 94.9 µM); in test [14] it was 32 µg/mL (≈ 94.9 µM); in test [6], 8 µg/mL (≈ 23.7 µM). For the same molecule, half-maximal inhibition in test [1] (IC50) required 4600 nM.
